In the supplement of paper PMC11579375:

Key:
Assay in all cases: area under the viability dose-response curve (AUC) (AUC (arbitrary units, max 500 = no viability loss)); higher = less sensitive (higher viability)
Conditions in all cases: exposure time: 120 h; concentration range: 0.1 nM - 10 µM, 6 doses
[1] = system: 13E (embryonal-type hepatoblastoma organoid)
Procedure: (§1)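 Patient-derived hepatoblastoma tumor organoids (about 50 organoids per well, 384-well plates, medium with 5% BME) were treated with the PMC pediatric cancer drug library. Each drug was tested in duplicate at 6 concentrations (0.1 nM to 10 µM, 10-fold steps).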

[2] = system: 17E (embryonal-type hepatoblastoma organoid)
Procedure: as §1

[3] = system: 17F1 (fetal-I hepatoblastoma organoid with intermediate liver markers)
Procedure: as §1

[4] = system: 13F2 (fetal-II hepatoblastoma organoid with high liver markers)
Procedure: as §1

[5] = system: 10F2 (fetal-II hepatoblastoma organoid with high liver markers)
Procedure: as §1

[6] = system: 8F1 (fetal-I hepatoblastoma organoid with intermediate liver markers)
Procedure: as §1

[7] = system: 3E (embryonal-type hepatoblastoma organoid)
Procedure: as §1

[8] = system: 27F1 (fetal-I hepatoblastoma organoid with intermediate liver markers)
Procedure: as §1

[9] = system: 22E (embryonal-type hepatoblastoma organoid)
Procedure: as §1

[10] = system: 135F2 (fetal-II hepatoblastoma organoid with high liver markers)
Procedure: as §1

[11] = system: 96F1 (fetal-I hepatoblastoma organoid with intermediate liver markers)
Procedure: as §1

Row | Compound | area under the viability dose-response curve [1] | area under the viability dose-response curve [2] | area under the viability dose-response curve [3] | area under the viability dose-response curve [4] | area under the viability dose-response curve [5] | area under the viability dose-response curve [6] | area under the viability dose-response curve [7] | area under the viability dose-response curve [8] | area under the viability dose-response curve [9] | area under the viability dose-response curve [10] | area under the viability dose-response curve [11]
1 | C[C@H]1Oc2cc(cnc2N)-c2c(nn(C)c2C#N)CN(C)C(=O)c2ccc(F)cc21 [Lorlatinib] | 450 | 416 | 481 | 448 | 435 | 476 | 459 | 471 | 471 | 498 | 463
2 | N[C@@H](Cc1ccc(N(CCCl)CCCl)cc1)C(=O)O [Melphalan] | 417 | 434 | > 500 | 436 | 414 | 483 | > 500 | > 500 | > 500 | 469 | 467
3 | C[C@@H](Oc1cc(-c2cnn(C3CCNCC3)c2)cnc1N)c1c(Cl)ccc(F)c1Cl [Crizotinib] | 415 | 405 | 431 | 398 | 369 | 477 | 379 | 441 | 420 | 422 | 462
4 | C[C@@H](c1ccc2nccn2c1)n1nnc2ncc(-c3cnn(C)c3)nc21 [Savolitinib] | > 500 | 499 | 489 | > 500 | 472 | > 500 | 489 | > 500 | > 500 | 497 | > 500
5 | CN(C)C/C=C/C(=O)Nc1cc2c(Nc3ccc(F)c(Cl)c3)ncnc2cc1O[C@H]1CCOC1 [Afatinib] | 472 | 491 | 408 | 271 | 253 | 493 | 456 | 342 | 489 | 442 | 352
6 | COc1ccc(-c2nc(N3CCOCC3)c3sc(CN(C)c4ncc(C(=O)NO)cn4)cc3n2)cn1 [Fimepinostat] | 236 | 158 | 255 | 167 | 169 | 296 | 161 | 255 | 237 | 166 | 235
7 | CS(=O)(=O)c1ccc(C(=O)Nc2ccc(Cl)c(-c3ccccn3)c2)c(Cl)c1 [Vismodegib] | 496 | > 500 | 489 | 490 | 443 | > 500 | > 500 | 497 | 452 | 473 | 494
8 | COc1ccc(Cn2ccc3ccc(C(=O)NO)cc32)cc1 | 490 | 475 | 484 | 472 | 454 | 474 | 452 | 483 | 452 | 488 | 487
9 | C[C@H](NC(=O)c1c(N)nn2cccnc12)c1cc2cccc(C#Cc3cnn(C)c3)c2c(=O)n1-c1ccccc1 [IPI549] | 463 | 464 | > 500 | 479 | 459 | > 500 | 428 | > 500 | 477 | > 500 | 459
10 | CN1CCN(c2ccc3nc(-c4c(N)c5c(F)cccc5[nH]c4=O)[nH]c3c2)CC1 [Dovitinib] | 417 | 390 | 468 | 400 | 418 | 499 | 396 | 477 | 412 | 455 | 433
11 | CC(C)N(C[C@H]1O[C@@H](n2cnc3c(N)ncnc32)[C@H](O)[C@@H]1O)[C@H]1C[C@@H](CCc2nc3cc(C(C)(C)C)ccc3[nH]2)C1 [Pinometostat] | 493 | 453 | 472 | 486 | 432 | 497 | > 500 | 490 | > 500 | 489 | 469
12 | CCC(CC)(NC(=O)C(C)C)C(=O)N[C@@H](CCCN=C(N)N)C(=O)NC1(C(=O)NC(c2ccc(F)cc2)c2ccc(F)cc2)CCCC1 [MM102] | > 500 | > 500 | 486 | 482 | 445 | > 500 | > 500 | 493 | 464 | 497 | 485
13 | COc1cc(C(=O)O)ccc1NC(=O)[C@@H]1N[C@@H](CC(C)(C)C)[C@](C#N)(c2ccc(Cl)cc2F)[C@H]1c1cccc(Cl)c1F [Idasanutlin] | 413 | 378 | 457 | 282 | 291 | 371 | 349 | 402 | 450 | 397 | 471
14 | Nc1ccn([C@@H]2O[C@H](CO)[C@@H](O)[C@@H]2O)c(=O)n1 [Cytarabine] | 425 | 425 | 393 | 377 | 481 | 479 | 370 | 427 | 433 | 403 | 378
15 | COc1ccc([C@@H](O)c2cc(-c3ncnc4cc(N5CCOCC5)ccc34)c(F)cc2Cl)nn1 [Nedisertib] | 453 | 409 | 486 | 394 | 404 | 479 | 435 | 493 | 462 | 463 | 462
16 | CC[C@H](Nc1nc(NCc2cnc(C)cc2C)c2ncn(C(C)C)c2n1)[C@@H](C)O [CYC065] | 400 | 381 | 366 | 328 | 325 | 377 | 382 | 347 | 419 | 387 | 333
17 | C=CC(=O)N1C[C@H](Nc2ncnc3[nH]ccc23)CC[C@@H]1C | > 500 | > 500 | 488 | 460 | 426 | 495 | 463 | > 500 | > 500 | 471 | 482
18 | Cc1ccc(NC(=O)c2ccc(CN3CCN(C)CC3)cc2)cc1Nc1nccc(-c2cccnc2)n1 [Imatinib] | 499 | 496 | 478 | 498 | 488 | 483 | 487 | 481 | 500 | 478 | 498
